According to ChEMBL document CHEMBL1153471, “3,5-Diphenylpent-2-enoic acids as allosteric activators of the protein kinase PDK1: structure-activity relationships and thermodynamic characterization of binding as paradigms for PIF-binding pocket-targeting compounds” (J Med Chem, 2009):
Numbering of substitutions follows the chain as printed. Each block holds one compound with its values, some of them ahead of it. Active and inactive are the calls of the source. The calls are words filed in the database; no cut-off is given here.

Key:
[1] = target: T1, 3-phosphoinositide-dependent protein kinase 1 (Homo sapiens, UniProt O15530); test: Binding affinity to PDK1 (50 to 359) by isothermal titration calorimetry
T1 sequence (O15530 whole entry): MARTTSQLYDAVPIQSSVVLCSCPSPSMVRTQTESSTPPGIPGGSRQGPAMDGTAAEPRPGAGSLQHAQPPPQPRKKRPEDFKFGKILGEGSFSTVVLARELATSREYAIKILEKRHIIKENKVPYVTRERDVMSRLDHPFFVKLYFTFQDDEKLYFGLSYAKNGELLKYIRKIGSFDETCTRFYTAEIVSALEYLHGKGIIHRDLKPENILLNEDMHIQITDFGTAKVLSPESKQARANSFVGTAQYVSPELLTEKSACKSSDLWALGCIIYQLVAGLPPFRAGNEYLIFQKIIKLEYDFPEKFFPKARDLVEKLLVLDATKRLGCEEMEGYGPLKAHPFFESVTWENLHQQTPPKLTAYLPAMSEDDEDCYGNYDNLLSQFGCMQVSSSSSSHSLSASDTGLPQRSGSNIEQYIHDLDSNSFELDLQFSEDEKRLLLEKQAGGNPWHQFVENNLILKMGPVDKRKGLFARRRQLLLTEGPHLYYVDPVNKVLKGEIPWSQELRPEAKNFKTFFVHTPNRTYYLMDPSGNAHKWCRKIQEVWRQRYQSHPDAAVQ

[2] = system: T2, 3-phosphoinositide-dependent protein kinase 1 (Homo sapiens), O15530 [V127T]; test: Binding affinity to GST-PDK1 V127T mutant expressed in HEK293 cells at 2 uM; type: cell-based
T2 sequence (whole entry): T1 sequence (O15530 whole entry) with V127T

[3] = target: T3, 3-phosphoinositide-dependent protein kinase 1 (Homo sapiens) (UniProt O15530); test: Binding affinity to wild type recombinant GST-PDK1 expressed in HEK293 cells at 2 uM; type: cell-based
T3 sequence (whole entry): T1 sequence (O15530 whole entry)

[4] = target: T3, 3-phosphoinositide-dependent protein kinase 1 (Homo sapiens)

- Kd ([1]; read-out: Kd): 5.9 µM
Compound: O=C(O)/C=C(/CCc1ccc(Cl)cc1Cl)c1ccccc1

- Kd [1]: Not Active
Compound: O=C(O)/C=C(\CCc1ccc(Br)cc1F)c1ccccc1

- Activity [2]: Active
- Activity [3]: Active
Compound: H-REPRILSEEEQEMFRDFDYIADEC-OH

- Kd ([1]; read-out: Kd): 13.8 µM
Compound: O=C(O)/C=C(/CCc1ccc2ccccc2c1)c1ccccc1

- Ka [4]: 47800 M⁻¹
- Kd ([1]; read-out: Kd): 20.9 µM
Compound: O=C(O)/C=C(/CCc1ccc(Br)cc1)c1ccccc1

- Ka [4]: 96600 M⁻¹
- Kd ([1]; read-out: Kd): 10.4 µM
Compound: O=C(O)/C=C(/CCc1ccc(C(F)(F)F)cc1)c1ccccc1

More lines, now with the values behind:

Compound: O=C(O)/C=C(\CCc1ccc2ccccc2c1)c1ccccc1
- Kd [1]: Not Active

Compound: O=C(O)/C=C(\CCC1C=Nc2ccccc21)c1ccccc1 (centres undefined)
- Kd [1]: Not Active

Compound: O=C(O)/C=C(/CCc1ccc(Cl)c(Cl)c1)c1ccccc1
- Ka [4]: 71800 M⁻¹
- Kd ([1]; read-out: Kd): 13.9 µM

Compound: O=C(O)/C=C(/CCc1c[nH]c2ccccc12)c1ccccc1
- Kd ([1]; read-out: Kd): 10 µM
